5 molecules from patent publication EP0452680A1 (priority 1990, dated 1991) can be followed below.

Data set [1] is described as follows: in vitro. As to conditions: bovine, mdbk cells.
Data set [2] is described as follows: in vitro. As to conditions: monkey, vero cells.
The test system of data set [3] is Herpesviren. The experiment in a line: General statement on antiviral activity (no specific test named). As to conditions: qualitative statement in the description.
Data set [4] is described as follows: in vitro. As to conditions: human, hela cells.
Data set [5] can be described thus: in vitro. As to conditions: monkey, vero cells. This is another data set of the same source.

Molecules are shown by their SMILES.

Turning to `CC(C)OCC(COC(C)C)OCn1cnc2nc(N)ncc21` [Beispiel 6.7., 2-Amino-7-[1,3-bis(isopropoxy)-2-propoxymethyl]purin], the MNTC in data set [1], in data set [2], in data set [4] and in data set [5] was > 400 µg/mL each time. For the same molecule, the “antivirale Aktivität gegen Herpesviren” value in data set [3] is given as “besonders hohen antiviralen Aktivität”.
In the case of `CC(C)OCC(CO)OCn1cnc2nc(N)ncc21` (centres unmarked) [Beispiel 6.10., 2-Amino-7-(1-hydroxy-3-isopropoxy-2-propoxymethyl)-purin], the MNTC in data set [1], in data set [2], in data set [4] and in data set [5] was > 400 µg/mL each time. Further, in data set [3], the “antivirale Aktivität gegen Herpesviren” value is “besonders hohen antiviralen Aktivität”.
For `Nc1ncc2c(ncn2COC(CO)CO)n1` [Beispiel 6.12., 2-Amino-7-(1,3-dihydroxy-2-propoxymethyl)-purin], the MNTC in data set [1] is > 400 µg/mL; in data set [2], 133 µg/mL; in data set [4], 44.4 µg/mL; in data set [5], 133 µg/mL. In addition, the “antivirale Aktivität gegen Herpesviren” value in data set [3] is recorded as “besonders hohen antiviralen Aktivität”.
Consider `Nc1nc2ncn(COC(CO)CO)c2c(=O)[nH]1` [reference compound], for which the MNTC in data set [1], in data set [2], in data set [4] and in data set [5] was > 400 µg/mL in each case.
Take `Nc1nc(O)c2ncn(COC(CO)CO)c2n1` [reference compound]: the MNTC was > 133 µg/mL in data set [1], > 400 µg/mL in data set [2], > 400 µg/mL in data set [4] and > 400 µg/mL in data set [5].
